This note sets out measurements from ChEMBL document CHEMBL1687734, “Pharmacokinetics of EDP-420 after multiple oral doses in healthy adult volunteers and in a bioequivalence study” (Antimicrob Agents Chemother, 2009).

Type in all cases: ADME, organism-based
Series [1] has as its system Homo sapiens. Briefly: AUC (0 to infinity) in 8 hrs fasted healthy human plasma assessed as EDP-420 9-keto level at 200 mg, po administered as single dose of suspension. More on the design: dose 200 mg, time infinity, route oral. Conditions: in vivo.
The subject of series [2] is Homo sapiens. Briefly: Ratio of AUC (0 to 24 hrs) in healthy human plasma assessed as EDP-420 9-keto level at 200 mg, po once daily for 3 days measured on day 3 to AUC (0 to 24 hrs) in healthy human plasma assessed as EDP-420 9-keto level at 200 mg, po once daily for 3 days measured on day 1. The following applies: in vivo.
The test system of series [3] is Homo sapiens. Briefly: AUC (0 to last) in healthy human plasma assessed as EDP-420 9-keto level at 200 mg, po once daily for 3 days measured after 1 day. More on the design: dose 200 mg, time 0 - last, route oral. Conditions: in vivo, 24 h.
The test system of series [4] is Homo sapiens. Briefly: AUC (0 to last) in 8 hrs fasted healthy human plasma assessed as EDP-420 9-keto level at 200 mg, po administered as single dose of suspension. Also noted: dose 200 mg, time 0 - last, route oral. Conditions: in vivo.
The test system of series [5] is Homo sapiens. Briefly: Tmax in 8 hrs fasted healthy human plasma assessed as EDP-420 9-keto level at 200 mg, po administered as single dose of suspension. Conditions: in vivo.
Series [6] has as its system Homo sapiens. Briefly: Tmax in 8 hrs fasted healthy human plasma assessed as EDP-420 9-keto level at 200 mg, po administered as single dose of two-100 mg capsules. The following applies: in vivo.
Series [7] deals with Homo sapiens. Briefly: AUC (0 to infinity) in 8 hrs fasted healthy human plasma assessed as EDP-420 9-keto level at 200 mg, po administered as single dose of two-100 mg capsules. Also noted: dose 200 mg, time infinity, route oral. Conditions: in vivo.
The subject of series [8] is Homo sapiens. Briefly: AUC (0 to last) in high-fat fed healthy human plasma assessed as EDP-420 9-keto level at 200 mg, po administered as single dose of two-100 mg capsules. Conditions: in vivo. Also noted: dose 200 mg, route oral, time 0 - last.
For series [9], the system named is Homo sapiens. Briefly: Cmax in high-fat fed healthy human plasma assessed as EDP-420 9-keto level at 200 mg, po administered as single dose of two-100 mg capsules by HPLC-tandem mass spectrometry. More on the design: dose 200 mg, route oral. The following applies: in vivo.
Series [10] deals with Homo sapiens. Briefly: AUC (0 to infinity) in healthy human plasma assessed as EDP-420 9-keto level at 400 mg administered once on day 1 followed by 200 mg once daily for 2 days during 3 days of treatment measured after 3 days. Also noted: dose 400 mg, time infinity. Conditions: in vivo, 72 h.
Series [11] has as its system Homo sapiens. Briefly: Cmax in 8 hrs fasted healthy human plasma assessed as EDP-420 9-keto level at 200 mg, po administered as single dose of two-100 mg capsules by HPLC-tandem mass spectrometry. More on the design: dose 200 mg, route oral. Conditions: in vivo.
In series [12] the test system is Homo sapiens. Briefly: Tmax in high-fat fed healthy human plasma assessed as EDP-420 9-keto level at 200 mg, po administered as single dose of two-100 mg capsules. Conditions: in vivo.
The subject of series [13] is Homo sapiens. Briefly: Half life in healthy human plasma assessed as EDP-420 9-keto level at 200 mg, po administered as once daily for 3 days measured after 3 days. Conditions: in vivo, 72 h.
In series [14] the test system is Homo sapiens. Briefly: AUC (0 to last) in healthy human plasma assessed as EDP-420 9-keto level at 200 mg, po once daily for 3 days measured after 3 days. More on the design: dose 200 mg, time 0 - last, route oral. The following applies: in vivo, 72 h.
Series [15] has as its system Homo sapiens. Briefly: Half life in 8 hrs fasted healthy human plasma assessed as EDP-420 9-keto level at 200 mg, po administered as single dose of two-100 mg capsules. The following applies: in vivo.
In series [16] the test system is Homo sapiens. Briefly: Half life in 8 hrs fasted healthy human plasma assessed as EDP-420 9-keto level at 200 mg, po administered as single dose of suspension. The following applies: in vivo.
Series [17] has as its system Homo sapiens. Briefly: Tmax in healthy human plasma assessed as EDP-420 9-keto level at 200 mg, po once daily for 3 days measured after 1 day. Conditions: in vivo, 24 h.
The test system of series [18] is Homo sapiens. Briefly: Cmax in healthy human plasma assessed as EDP-420 9-keto level at 200 mg, po once daily for 3 days measured after 1 day by HPLC-tandem mass spectrometry. More on the design: dose 200 mg, route oral. The following applies: in vivo, 24 h.
The subject of series [19] is Homo sapiens. Briefly: Cmax in healthy human plasma assessed as EDP-420 9-keto level at loading dose of 400 mg/day, po once daily for 3 days measured after 1 day by HPLC-tandem mass spectrometry. More on the design: dose 400 mg/day, route oral. Conditions: in vivo, 24 h.
For series [20], the system named is Homo sapiens. Briefly: AUC (0 to infinity) in high-fat fed healthy human plasma assessed as EDP-420 9-keto level at 200 mg, po administered as single dose of two-100 mg capsules. More on the design: dose 200 mg, time infinity, route oral. The following applies: in vivo.
Series [21] deals with Homo sapiens. Briefly: Cmax in 8 hrs fasted healthy human plasma assessed as EDP-420 9-keto level at 200 mg, po administered as single dose of suspension by HPLC-tandem mass spectrometry. Also noted: dose 200 mg, route oral. The following applies: in vivo.
The subject of series [22] is Homo sapiens. Briefly: Ratio of drug concentration in 8 hrs fasted healthy human plasma at 200 mg, po administered as single dose of suspension to drug concentration in 8 hrs fasted healthy human plasma assessed as EDP-420 9-keto level at 200 mg, po administered as single dose of suspension. Conditions: in vivo.
The subject of series [23] is Homo sapiens. Briefly: Ratio of AUC (0 to 24 hrs) in healthy human plasma assessed as EDP-420 9-keto level at loading dose of 400 mg/day, po administered as single dose measured on 1 day to AUC (0 to 24 hrs) in healthy human plasma assessed as EDP-420 9-keto level at 400 mg administered once on day 1 followed by 200 mg once daily for 2 days during 3 days of treatment measured on day 3. Conditions: in vivo.

Series [24] deals with Homo sapiens. Briefly: Tmax in healthy human plasma assessed as EDP-420 9-keto level at 200 mg, po once daily for 3 days measured after 3 days. The following applies: in vivo, 72 h.
For series [25], the system named is Homo sapiens. Briefly: Half life in high-fat fed healthy human plasma assessed as EDP-420 9-keto level at 200 mg, po administered as single dose of two-100 mg capsules. The following applies: in vivo.
Series [26] relates to Homo sapiens. Briefly: Cmax in healthy human plasma assessed as EDP-420 9-keto level at 200 mg, po once daily for 3 days measured after 3 days by HPLC-tandem mass spectrometry. Also noted: dose 200 mg, route oral. Conditions: in vivo, 72 h.
Series [27] relates to Homo sapiens. Briefly: Ratio of drug concentration in high-fat fed healthy human plasma at 200 mg, po administered as single dose of two-100 mg capsules to drug concentration in high-fat fed healthy human plasma assessed as EDP-420 9-keto level at 200 mg, po administered as single dose of two-100 mg capsules. Conditions: in vivo.
For series [28], the system named is Homo sapiens. Briefly: AUC (0 to last) in healthy human plasma assessed as EDP-420 9-keto level at 400 mg administered once on day 1 followed by 200 mg once daily for 2 days during 3 days of treatment measured after 3 days. More on the design: dose 400 mg, time 0 - last. The following applies: in vivo, 72 h.
Series [29] has as its system Homo sapiens. Briefly: Tmax in healthy human plasma assessed as EDP-420 9-keto level at loading dose of 400 mg/day, po once daily for 3 days measured after 1 day. The following applies: in vivo, 24 h.
The subject of series [30] is Homo sapiens. Briefly: Half life in healthy human plasma assessed as EDP-420 9-keto level at 400 mg administered once on day 1 followed by 200 mg once daily for 2 days during 3 days of treatment measured after 3 days. Conditions: in vivo, 72 h.
In series [31] the test system is Homo sapiens. Briefly: Cmax in healthy human plasma assessed as EDP-420 9-keto level at 400 mg administered once on day 1 followed by 200 mg once daily for 2 days during 3 days of treatment measured after 3 days by HPLC-tandem mass spectrometry. More on the design: dose 400 mg. Conditions: in vivo, 72 h.
Series [32] has as its system Homo sapiens. Briefly: AUC (0 to last) in 8 hrs fasted healthy human plasma assessed as EDP-420 9-keto level at 200 mg, po administered as single dose of two-100 mg capsules. Also noted: dose 200 mg, time 0 - last, route oral. The following applies: in vivo.
Series [33] has as its system Homo sapiens. Briefly: AUC (0 to infinity) in healthy human plasma assessed as EDP-420 9-keto level at 200 mg, po once daily for 3 days measured after 3 days. The following applies: in vivo, 72 h. More on the design: dose 200 mg, time infinity, route oral.
Series [34] is described as follows: Drug concentration in Alveolar macrophage of healthy human at 500 mg, po administered as single dose after 24 hrs. The following applies: alveolar macrophages, read-out: Drug uptake.
Series [35] in a line: Drug concentration in Epithelial lining fluid of healthy human at 500 mg, po administered as single dose after 24 hrs. Conditions: read-out: Drug uptake.

Regarding `CC[C@H]1OC(=O)[C@H](C)C(=O)[C@H](C)[C@@H](O[C@@H]2O[C@H](C)C[C@H](N(C)C)[C@H]2O)[C@@]2(C)C[C@@H](C)C(=O)[C@H](C)[C@@H](OC/C(=N\OCc3ccc(-n4cccn4)nc3)CO2)[C@]1(C)O`, the area under the curve (AUC) (commonly the area under the concentration-time curve, a measure of exposure) came to 842 ng·h/mL in the series with Homo sapiens [1]; 461 ng·h/mL in the series on Homo sapiens [3]; 754 ng·h/mL with Homo sapiens [4]; 837 ng·h/mL in the series with Homo sapiens [7]; 1220 ng·h/mL with Homo sapiens [8]; 2228 ng·h/mL with Homo sapiens [10]. In addition, the AUC in the series with Homo sapiens [14] was determined as 2134 ng·h/mL; with Homo sapiens [20] it was 1326 ng·h/mL; with Homo sapiens [28], 2154 ng·h/mL; with Homo sapiens [32] it was 745 ng·h/mL; in the series on Homo sapiens [33] it was 2209 ng·h/mL. In addition, the “Ratio AUC” value with Homo sapiens [2] is reported as 1.76; in the series on Homo sapiens [23] it was 1.11. Moreover, the time to peak (Tmax) (commonly the time at which the peak concentration occurs) is 5 h with Homo sapiens [5]; 5 h in the series with Homo sapiens [6]; 6 h in the series on Homo sapiens [12]; 5 h in the series with Homo sapiens [17]; 5 h with Homo sapiens [24]; 5 h in the series on Homo sapiens [29]. For the same molecule, the peak concentration (Cmax) – broadly, the maximum level reached in the sampled fluid or tissue – in the series on Homo sapiens [9] was determined as 36.1 ng/mL; in the series with Homo sapiens [11] it was 23.7 ng/mL; in the series with Homo sapiens [18], 30.5 ng/mL; in the series on Homo sapiens [19], 49 ng/mL; with Homo sapiens [21] it was 24.9 ng/mL; in the series on Homo sapiens [26], 46 ng/mL. For the same molecule, the Cmax with Homo sapiens [31] was determined as 47.6 ng/mL. Further, the t1/2 in the series on Homo sapiens [13] worked out at 29.5 h; with Homo sapiens [15], 30.5 h; in the series with Homo sapiens [16], 29.5 h; in the series with Homo sapiens [25] it was 28.4 h; in the series with Homo sapiens [30], 27.8 h. For the same molecule, the values for the Ratio in the series on Homo sapiens [22] and with Homo sapiens [27] were 0.1 and 0.16, respectively.

Turning to `CC[C@H]1OC(=O)[C@H](C)[C@@H](O[C@H]2C[C@@](C)(OC)[C@@H](O)[C@H](C)O2)[C@H](C)[C@@H](O[C@@H]2O[C@H](C)C[C@H](N(C)C)[C@H]2O)[C@](C)(O)C[C@@H](C)CN(C)[C@H](C)[C@@H](O)[C@]1(C)O` [AZITHROMYCIN], the figures for the concentration at 24 h in series [34] and in series [35] were 30800 ng/mL and 90 ng/mL, respectively.
